Data on 30 compounds can be found in patent US6875760B2 (Novo Nordisk A/S, priority 1999, dated 2005).

In this assay the target is T1, human glucagon receptor (Homo sapiens, UniProt P47871).
T1 construct: expressed in transfected cells; host or cells: BHK (baby hamster kidney) cells
In words: Glucagon Binding Assay (III). Particulars: BHK cell membranes, WGA SPA beads, 125I-glucagon; read-out: Glu Bd Assay (III) IC50. The gist of the method: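 Non-specific binding was set with 500 nM glucagon in this SPA-type binding assay using WGA beads. The receptor source was a membrane preparation, kept on ice or at 4 °C, from BHK cells transfected with the human receptor. Scintillation counts were taken after 4 hours of shaking and 8–48 hours of settling.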

T1 sequence (P47871 26-477): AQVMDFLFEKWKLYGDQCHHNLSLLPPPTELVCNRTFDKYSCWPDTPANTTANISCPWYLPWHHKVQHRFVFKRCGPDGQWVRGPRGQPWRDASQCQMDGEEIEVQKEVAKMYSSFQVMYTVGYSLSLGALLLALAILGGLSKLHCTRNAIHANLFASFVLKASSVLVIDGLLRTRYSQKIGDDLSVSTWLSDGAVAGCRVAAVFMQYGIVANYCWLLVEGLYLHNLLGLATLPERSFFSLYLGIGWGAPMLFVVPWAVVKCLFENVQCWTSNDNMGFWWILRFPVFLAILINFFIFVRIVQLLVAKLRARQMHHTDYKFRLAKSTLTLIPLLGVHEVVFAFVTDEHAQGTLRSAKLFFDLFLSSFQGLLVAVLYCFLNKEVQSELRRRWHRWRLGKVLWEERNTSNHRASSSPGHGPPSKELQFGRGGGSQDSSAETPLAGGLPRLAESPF

As usually defined, the IC50 is the concentration that inhibits the measured activity by half. As to `CC(C)(C)c1ccc(N(Cc2ccc(C(=O)Nc3nn[nH]n3)cc2)C(=O)Nc2ccc(SC(F)(F)F)cc2)cc1` [Example 332, 4-[1-(4-tert-Butylphenyl)-3-(4-trifluoromethylsulfanylphenyl)ureidomethyl]-N-(2H-tetrazol-5-yl)benzamide], the IC50 turned out to be 20 nM.

For `CC(C)(C)c1ccc(N(Cc2ccc(C(=O)Nc3nn[nH]n3)cc2)C(=O)Nc2cc(Cl)cc(Cl)c2)cc1` [Example 333, 4-[1-(4-tert-Butylphenyl)-3-(3,5-dichlorophenyl)ureidomethyl]-N-(2H-tetrazol-5-yl)benzamide], the IC50 is 26 nM. `CC(C)(C)[C@H]1CC[C@H](N(Cc2ccc(C(=O)Nc3nn[nH]n3)cc2)C(=O)Nc2ccc(OCC3CC3)cc2C(F)(F)F)CC1` [Example 334, 4-[1-(trans-4-tert-Butylcyclohexyl)-3-(4-cyclopropylmethoxy-2-trifluoromethylphenyl)ureidomethyl]-N-(2H-tetrazol-5-yl)benzamide]: the IC50 turned out to be 288 nM. With `O=C(Nc1nn[nH]n1)c1ccc(CN(C(=O)Nc2cc(Cl)sc2Cl)c2ccc(C3CCCCC3)cc2)cc1` [Example 335, 4-[1-(4-Cyclohexylphenyl)-3-(2,5-dichlorothiophen-3-yl)ureidomethyl]-N-(2H-tetrazol-5-yl)benzamide] the figure was 1090 nM; with `CC(NC(=O)N(Cc1ccc(C(=O)Nc2nn[nH]n2)cc1)c1ccc(C2CCCCC2)cc1)c1ccc(Cl)cc1` (stereo not drawn) [Example 336, 4-[3-[1-(4-Chlorophenyl)ethyl]-1-(4-cyclohexylphenyl)ureidomethyl]-N-(2H-tetrazol-5-yl)benzamide], 58 nM; with `COc1ccc(NC(=O)N(Cc2ccc(C(=O)Nc3nn[nH]n3)cc2)c2ccc(C(C)(C)C)cc2)cc1S(C)(=O)=O` [Example 339, 4-[1-(4-tert-Butylphenyl)-3-(3-methylsulfonyl-4-methoxyphenyl)ureidomethyl]-N-(2H-tetrazol-5-yl)benzamide], 797 nM. The same measure for `COc1ccc(NC(=O)N(Cc2ccc(C(=O)Nc3nn[nH]n3)cc2)c2ccc(C3CCCCC3)cc2)cc1S(C)(=O)=O` [Example 340, 4-[1-(4-Cyclohexylphenyl)-3-(3-methylsulfonyl-4-methoxyphenyl)ureidomethyl]-N-(2H-tetrazol-5-yl)benzamide]: 179 nM; for `O=C(Nc1nn[nH]n1)c1ccc(CN(C(=O)Nc2nc3ccc(OC(F)(F)F)cc3s2)c2ccc(C3CCCCC3)cc2)cc1` [Example 341, 4-[1-(4-Cyclohexylphenyl)-3-(6-trifluoromethoxybenzothiazol-2-yl)ureidomethyl]-N-(2H-tetrazol-5-yl)benzamide]: 56 nM. With `O=C(Nc1nn[nH]n1)c1ccc(CN(C(=O)Nc2nc3ccc([N+](=O)[O-])cc3s2)c2ccc(C3CCCCC3)cc2)cc1` [Example 342, 4-[1-(4-Cyclohexylphenyl)-3-(6-nitrobenzothiazol-2-yl)ureidomethyl]-N-(2H-tetrazol-5-yl)benzamide] the figure was 376 nM. Take `CCOC(=O)c1ccc2nc(NC(=O)N(Cc3ccc(C(=O)Nc4nn[nH]n4)cc3)c3ccc(C4CCCCC4)cc3)sc2c1` [Example 343, 2-{3-(4-Cyclohexylphenyl)-3-[4-(2H-tetrazol-5-ylcarbamoyl)benzyl]ureido}benzothiazole-6-carboxylic acid ethyl ester]: the IC50 was found to be 99 nM.

Take `O=C(Nc1nn[nH]n1)c1ccc(CN(C(=O)Nc2cccc(OC(F)(F)F)c2)c2ccc(C3CCCCC3)cc2)cc1` [Example 344, 4-[1-(4-Cyclohexylphenyl)-3-(3-trifluoromethoxyphenyl)ureidomethyl]-N-(2H-tetrazol-5-yl)benzamide]: the IC50 is 16 nM.

As for `O=C(Nc1nn[nH]n1)c1ccc(CN(C(=O)NCc2ccccc2Br)c2ccc(C3CCCCC3)cc2)cc1` [Example 345, 4-[3-(2-Bromobenzyl)-1-(4-cyclohexylphenyl)ureidomethyl]-N-(2H-tetrazol-5-yl)benzamide], the IC50 stood at 64 nM.

With `O=C(Nc1nn[nH]n1)c1ccc(CN(C(=O)Nc2ccc(Cl)c(Cl)c2)c2ccc(C3CCCCC3)cc2)cc1` [Example 346, 4-[1-(4-Cyclohexylphenyl)-3-(3,4-dichlorophenyl)ureidomethyl]-N-(2H-tetrazol-5-yl)benzamide], the IC50 stood at 25 nM. Take `O=C(Nc1nn[nH]n1)c1ccc(CN(C(=O)NCc2ccc(OC(F)(F)F)cc2)c2ccc(C3CCCCC3)cc2)cc1` [Example 347, 4-[1-(4-Cyclohexylphenyl)-3-(4-trifluoromethoxybenzyl)ureidomethyl]-N-(2H-tetrazol-5-yl)benzamide]: the IC50 came out at 79 nM. Consider `O=C(Nc1nn[nH]n1)c1ccc(CN(C(=O)NCc2ccccc2OC(F)(F)F)c2ccc(C3CCCCC3)cc2)cc1` [Example 348, 4-[1-(4-Cyclohexylphenyl)-3-(2-trifluoromethoxybenzyl)ureidomethyl]-N-(2H-tetrazol-5-yl)benzamide], for which the IC50 was 73 nM. For the compound `O=C(Nc1nn[nH]n1)c1ccc(CN(C(=O)Nc2cccc(Br)c2)c2ccc(C3=CCCCC3)cc2)cc1` [Example 349, 4-[3-(3-Bromophenyl)-1-(4-cyclohex-1-enylphenyl)ureidomethyl]-N-(2H-tetrazol-5-yl)benzamide], the IC50 came to 6 nM. With `O=C(Nc1nn[nH]n1)c1ccc(CN(C(=O)Nc2ccccc2OC(F)(F)F)c2ccc(C3CCCCC3)cc2)cc1` [Example 350, 4-[1-(4-Cyclohexylphenyl)-3-(2-trifluoromethoxyphenyl)ureidomethyl]-N-(2H-tetrazol-5-yl)benzamide] the figure was 271 nM; with `O=C(Nc1nn[nH]n1)c1ccc(CN(C(=O)Nc2ccccc2OC(F)(F)F)c2ccc(C3=CCCCC3)cc2)cc1` [Example 351, 4-[1-(4-Cyclohex-1-enylphenyl)-3-(2-trifluoromethoxyphenyl)ureidomethyl]-N-(2H-tetrazol-5-yl)benzamide], 368 nM; with `O=C(Nc1nn[nH]n1)c1ccc(CN(C(=O)Nc2cccc(OC(F)(F)F)c2)c2ccc(C3=CCCCC3)cc2)cc1` [Example 352, 4-[1-(4-Cyclohex-1-enylphenyl)-3-(3-trifluoromethoxyphenyl)ureidomethyl]-N-(2H-tetrazol-5-yl)benzamide], 21 nM. The same measure for `O=C(Nc1nn[nH]n1)c1ccc(CN(C(=O)NCc2ccccc2-c2ccccc2)c2ccc(C3=CCCCC3)cc2)cc1` [Example 353, 4-[3-Biphenyl-2-ylmethyl-1-(4-cyclohex-1-enylphenyl)ureidomethyl]-N-(2H-tetrazol-5-yl)benzamide]: 22 nM; for `O=C(Nc1nn[nH]n1)c1ccc(CN(C(=O)NCc2ccccc2-c2ccccc2)c2ccc(C3CCCCC3)cc2)cc1` [Example 354, 4-[3-Biphenyl-2-ylmethyl-1-(4-cyclohexylphenyl)ureidomethyl]-N-(2H-tetrazol-5-yl)benzamide]: 11 nM; for `C[C@@H](NC(=O)N(Cc1ccc(C(=O)Nc2nn[nH]n2)cc1)c1ccc(C2=CCCCC2)cc1)c1ccc(Br)cc1` [Example 355, (R)-4-[3-[1-(4-Bromophenyl)ethyl]-1-(cyclohex-1-enylphenyl)ureidomethyl]-N-(2H-tetrazol-5-yl)benzamide]: 112 nM. With `O=C(Nc1nn[nH]n1)c1ccc(CN(C(=O)Nc2cccc(Br)c2)c2ccc(C3CCCCC3)cc2)cc1` [Example 356, 4-[3-(3-Bromophenyl)-1-(4-cyclohexylphenyl)ureidomethyl]-N-(2H-tetrazol-5-yl)benzamide] the figure was 16 nM; with `CC(C)(C)c1cccc(NC(=O)N(Cc2ccc(C(=O)Nc3nn[nH]n3)cc2)c2ccc(C3CCCCC3)cc2)c1` [Example 357, 4-[1-(4-Cyclohexylphenyl)-3-(3-tert-butylphenyl)ureidomethyl]-N-(2H-tetrazol-5-yl)benzamide], 17 nM; with `O=C(Nc1nn[nH]n1)c1ccc(CN(C(=O)Nc2ccc3c(c2)C(F)(F)OC(F)(F)O3)c2ccc(C3=CCCCC3)cc2)cc1` [Example 358, 4-[1-(4-Cyclohex-1-enylphenyl)-3-(2,2,4,4-tetrafluoro-4H-benzo[1,3]dioxin-6-yl)ureidomethyl]-N-(2H-tetrazol-5-yl)benzamide], 19 nM.

As to `N#Cc1cc(NC(=O)N(Cc2ccc(C(=O)Nc3nn[nH]n3)cc2)c2ccc(C3CCCCC3)cc2)cc(C(F)(F)F)c1` [Example 359, 4-[3-(3-Cyano-5-trifluoromethylphenyl)-1-(4-cyclohexylphenyl)ureidomethyl]-N-(2H-tetrazol-5-yl)benzamide], the IC50 amounted to 16 nM. `O=C(Nc1nn[nH]n1)c1ccc(CN(C(=O)Nc2ccc(OC(F)(F)F)c(-c3nc4ccccc4o3)c2)c2ccc(C3CCCCC3)cc2)cc1` [Example 360, 4-[3-(3-Benzoxazol-2-yl-4-trifluoromethoxyphenyl)-1-(4-cyclohexylphenyl)ureidomethyl]-N-(2H-tetrazol-5-yl)benzamide]: the IC50 was 8 nM. With `O=C(Nc1nn[nH]n1)c1ccc(CN(C(=O)Nc2cc(C(F)(F)F)ccc2C(F)(F)F)c2ccc(C3=CCCCC3)cc2)cc1` [Example 361, 4-[3-(2,5-Bis(trifluoromethyl)phenyl)-1-(4-cyclohex-1-enylphenyl)ureidomethyl]-N-(2H-tetrazol-5-yl)benzamide] the figure was 119 nM; with `Cc1cc(NC(=O)N(Cc2ccc(C(=O)Nc3nn[nH]n3)cc2)c2ccc(C3=CCCCC3)cc2)cc(C(F)(F)F)c1` [Example 362, 4-[1-(4-Cyclohex-1-enylphenyl)-3-(3-methyl-5-trifluoromethylphenyl)ureidomethyl]-N-(2H-tetrazol-5-yl)benzamide], 13 nM; with `Cc1cc(NC(=O)N(Cc2ccc(C(=O)Nc3nn[nH]n3)cc2)C2CCC(C(C)(C)C)CC2)cc(C(F)(F)F)c1` (stereo not drawn) [Example 363, 4-[1-(4-tert-Butylcyclohexyl)-3-(3-methyl-5-trifluoromethylphenyl)ureidomethyl]-N-(2H-tetrazol-5-yl)benzamide], 23 nM.
